The values that follow are results of earlier work, collected in US10335367B2, “Use of selected anticholinergic zwitterions” (Bodor Laboratories, Inc., priority 2015, dated 2019).

The structures appear in SMILES notation. Like-named read-outs stand apart in the source and are kept apart here.

Data set [1] concerns myopia progression.
Data set [2] deals with progression of myopia. As to conditions: 2% ophthalmic gel; school-aged children.

As to `CN1[C@@H]2CC[C@H]1C[C@@H](OC(=O)C(CO)c1ccccc1)C2` (stereo partly shown) [atropine], the “mean myopia progression at 2 years” value in data set [1] (0.01% atropine) is 0.24 D/year; in data set [1] (0.1% atropine), 0.19 D/year; in data set [1] (0.5% atropine), 0.15 D/year.
Regarding `CN1CCN(CC(=O)N2c3ccccc3C(=O)Nc3cccnc32)CC1` [Pirenzepine], in data set [2], the “slowing the progression of myopia” value is on record as “found effective”.
